Among the test systems are A498 renal; BT-549 breast; DU-145 prostate; MDA-MB-435; NCI-H226 lung; NCI-H522 lung; OVCAR-4 ovarian; OVCAR-8 ovarian; SF-539 CNS; SK-OV-3 ovarian.
Common to all, as to assay: inhibition of tumour cell growth, NCI panel, 48 h

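Compound exposure: 48 hours, 5 concentrations, 96-well plates. Abbreviation: GI50, concentration required for 50% inhibition of growth. The concentration for full growth arrest is given as TGI.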

On to `COC(=O)c1ccc2[nH]c(O)c(C(=Nc3ccc(N(C)C(=O)CN4CCN(C)CC4)cc3)c3ccccc3)c2c1`, for which the GI50 is 1.91 µM with A498 renal; 1.65 µM in the test on BT-549 breast; 1.27 µM in the test with DU-145 prostate; 0.89 µM in the test with MDA-MB-435; 0.993 µM in the test on NCI-H226 lung; 1.49 µM with NCI-H522 lung. Besides, the GI50 is 0.956 µM with OVCAR-4 ovarian, 1.61 µM with OVCAR-8 ovarian, 0.44 µM in the test with SF-539 CNS and 0.444 µM in the test on SK-OV-3 ovarian. Besides, the TGI was 5.39 µM with A498 renal; 3.28 µM in the test with BT-549 breast; 8.98 µM in the test with DU-145 prostate; 4.02 µM in the test on MDA-MB-435; 4.99 µM in the test with NCI-H226 lung; 4.41 µM in the test on NCI-H522 lung. The TGI with OVCAR-4 ovarian amounted to 2.78 µM; in the test on OVCAR-8 ovarian, 7.1 µM; with SF-539 CNS, 1.72 µM; in the test with SK-OV-3 ovarian, 5 µM.

Regarding `Fc1ccc(-c2nn3c(COc4ccc(Cl)cc4)nnc3s2)cc1Oc1ccccc1`, the GI50 was 15.3 µM in the test with A498 renal; 24.8 µM in the test on BT-549 breast; 48.5 µM with DU-145 prostate; 30.8 µM in the test on MDA-MB-435; 28.7 µM in the test with NCI-H226 lung; 26.1 µM in the test on NCI-H522 lung. For the same compound, the GI50 in the test with OVCAR-4 ovarian is 50.4 µM; with OVCAR-8 ovarian, 21.2 µM; in the test on SF-539 CNS it was 22.5 µM; in the test with SK-OV-3 ovarian it was 78.9 µM. The TGI in the test with A498 renal was 51.8 µM; with BT-549 breast, 55.3 µM; in the test with DU-145 prostate, over 100 µM; in the test on MDA-MB-435, over 71.1 µM; in the test with NCI-H226 lung, 84.4 µM; in the test on NCI-H522 lung it was over 66.8 µM. Besides, the TGI with OVCAR-4 ovarian was over 100 µM; in the test on OVCAR-8 ovarian, 66.3 µM; in the test on SF-539 CNS, over 55.5 µM; with SK-OV-3 ovarian it was over 100 µM.

As to `CC1=C2[C@@H](CC1)[C@]1(C)O[C@@](C3CC3)(C[C@H]1OC(=O)CO)[C@H]2OC(=O)/C=C/c1ccccc1`, the GI50 was 0.0998 µM in the test with A498 renal; 0.148 µM in the test on BT-549 breast; 16.9 µM in the test on DU-145 prostate; 16.1 µM in the test on MDA-MB-435; 16.2 µM in the test with NCI-H226 lung; 15.9 µM in the test on NCI-H522 lung. Besides, the GI50 in the test on OVCAR-4 ovarian was 14.5 µM; in the test on OVCAR-8 ovarian, 0.0834 µM; with SF-539 CNS, 16.6 µM; with SK-OV-3 ovarian it was 15.6 µM. In addition, the TGI with A498 renal came out at 0.605 µM; with BT-549 breast, 7.74 µM; in the test with DU-145 prostate, 30.9 µM; in the test on MDA-MB-435 it was 30.6 µM; in the test on NCI-H226 lung it was 36.5 µM; in the test with NCI-H522 lung it was 32.4 µM. Also, the TGI with OVCAR-4 ovarian worked out at 29.2 µM; in the test on OVCAR-8 ovarian, 15.4 µM; in the test with SF-539 CNS, 31.6 µM; in the test on SK-OV-3 ovarian, 29.6 µM.

With `CNCc1ccc(-c2[nH]c3cc(F)cc4c3c2CCNC4=O)cc1`, the GI50 in the test on A498 renal was 21.6 µM; in the test on BT-549 breast it was 17.4 µM; with DU-145 prostate, 16 µM; in the test with MDA-MB-435 it was 16.5 µM; in the test with NCI-H226 lung, 15.6 µM; in the test with NCI-H522 lung, 19 µM. Also, the GI50 was 13.5 µM in the test with OVCAR-4 ovarian, 17.4 µM with OVCAR-8 ovarian, 15 µM in the test on SF-539 CNS and 18.6 µM in the test with SK-OV-3 ovarian. Further, the TGI came out at 53.8 µM in the test with A498 renal; 36.4 µM in the test with BT-549 breast; 32.3 µM in the test with DU-145 prostate; 36.1 µM in the test on MDA-MB-435; 43.4 µM in the test on NCI-H226 lung; 39.4 µM with NCI-H522 lung. The TGI with OVCAR-4 ovarian turned out to be 47.8 µM; in the test with OVCAR-8 ovarian, 77.5 µM; in the test with SF-539 CNS it was 30.6 µM; in the test with SK-OV-3 ovarian, 56 µM.

As for `C[C@]12CCC3=NCCN3C1=CC[C@@H]1[C@@H]2CC[C@@]2(C)[C@H]1CC[C@]2(C)O`, the TGI with A498 renal was 77.6 µM; in the test on BT-549 breast, over 100 µM; in the test on DU-145 prostate, over 100 µM; in the test on MDA-MB-435, over 100 µM; in the test on NCI-H226 lung, 96.3 µM; with NCI-H522 lung, over 100 µM. In addition, the TGI in the test on OVCAR-4 ovarian was over 100 µM; in the test on OVCAR-8 ovarian, over 100 µM; with SF-539 CNS, 80 µM; in the test on SK-OV-3 ovarian it was over 100 µM.

With `C#CC#CC#CC#CC#CC#CC#CC#CC[C@@H]1OC[C@@H](COC(=O)O[C@@H](C(=O)O[C@H]2C[C@@]3(O)[C@@H](OC(=O)c4ccccc4)[C@@H]4[C@]5(OC(C)=O)CO[C@@H]5C[C@H](O)[C@@]4(C)C(=O)[C@H](OC(C)=O)C(=C2C)C3(C)C)[C@@H](NC(=O)c2ccccc2)c2ccccc2)O1`, the GI50 is 0.332 µM in the test with A498 renal; 0.639 µM with BT-549 breast; 0.502 µM in the test on DU-145 prostate; 0.0394 µM in the test on MDA-MB-435; over 9.56 µM with NCI-H226 lung; 0.367 µM with NCI-H522 lung. Moreover, the GI50 is over 8.99 µM in the test with OVCAR-4 ovarian, 0.46 µM with OVCAR-8 ovarian, 0.248 µM in the test with SF-539 CNS and 0.897 µM in the test on SK-OV-3 ovarian. The TGI in the test with A498 renal was over 6.73 µM; in the test with BT-549 breast, over 33.3 µM; in the test with DU-145 prostate, over 33.3 µM; in the test with MDA-MB-435 it was 0.111 µM; in the test on NCI-H226 lung, over 33.3 µM; with NCI-H522 lung, over 17.6 µM. Also, the TGI was over 33.3 µM in the test on OVCAR-4 ovarian, over 33.3 µM in the test with OVCAR-8 ovarian, 1.99 µM with SF-539 CNS and over 33.3 µM in the test on SK-OV-3 ovarian.

Turning to `NC(=O)c1ncn(C2OC(CO)C(O)C2O)c1N` (stereo not given), the GI50 in the test on A498 renal is over 100 µM; in the test with BT-549 breast it was over 100 µM; with DU-145 prostate, 72.2 µM; in the test on MDA-MB-435 it was over 100 µM; with NCI-H226 lung, over 100 µM; with NCI-H522 lung it was over 100 µM. Besides, the GI50 is over 100 µM with OVCAR-4 ovarian, 62.2 µM in the test with OVCAR-8 ovarian, over 100 µM with SF-539 CNS and over 100 µM in the test with SK-OV-3 ovarian. The TGI in the test on A498 renal, in the test with BT-549 breast, in the test with DU-145 prostate, in the test with MDA-MB-435, with NCI-H226 lung and in the test on NCI-H522 lung was over 100 µM throughout. Besides, the TGI in the test with OVCAR-4 ovarian, with OVCAR-8 ovarian, in the test with SF-539 CNS and in the test on SK-OV-3 ovarian was over 100 µM each time.
